What was measured:
Type in all cases: in vivo
[1] = system: nitrite/nitrate (NOx); test: Nitrite/nitrate level in blood, rats with gastric injury without inflammation; conditions: 1.11 mmol/kg, vs control group H, FIG. 25
Procedure: (§1) The levels of plasma nitrite/nitrate (NOx), stable end products of NO were measured by the Griess reaction. This assay depends on the reduction of nitrate to nitrite, which is then converted into a colored azo dye compound that is detected spectrophotometrically at 540 nm.
Further experiments regarding the effect of a compound of formula (I) and a pharmaceutical composition comprising a compound of formula (I), respectively, on gastric injury without inflammation were conducted on rats. 15 animals were randomly allocated into three groups. Group H (n=5) served as sham-operated controls. Samples of all animals were drawn on day 1 of the clinical tests. On day 2 the animals of group I (n=5) were force-fed acetylsalicylic acid (ASS) (1.11 mmol/kg body weight). Group K (n=5) was force-fed 1.11 mmol/kg body weight of the compound according to the invention. Group H only received the respective solvent (25% ethanol in water). One day after the gavage, additional samples were drawn. Fluorescence confocal endomicroscopy was performed to examine the microvasculature and morphologic changes of the mucosa of the distal colon, and full-thickness tissue samples and venous blood samples were taken to determine the biochemical changes in the colon and plasma. The effects were determined by way of measurement of body weight, blood gas analysation and biopsy. […]

[2] = system: gastric mucosa; test: Macroscopic analysis (score) of gastric mucosa damage, mice; conditions: 1.11 mmol/kg, vs groups A and C, FIG. 10
Procedure: (§2) First experiments regarding the effect of the compound of formula (I) and a pharmaceutical composition comprising the compound of formula (I) (clear aqueous solution of compound of formula (I) at pH 4.8), respectively, on gastric injury without inflammation were conducted on mice. 48 animals were randomly allocated into three groups. Group A (n=16) served as sham-operated controls. Samples of all animals were drawn on day 1 of the clinical tests. On day 2 the animals of group B (n=16) were force-fed acetylsalicylic acid (ASS) (1.11 mmol/kg body weight). Group C (n=16) was force-fed 1.11 mmol/kg body weight of the compound according to the invention. Group A only received the respective solvent (25% ethanol in water). One day after the gavage, additional samples were drawn. Fluorescence confocal endomicroscopy was performed to examine the microvasculature and morphologic changes of the mucosa of the distal colon, and full-thickness tissue samples and venous blood samples were taken to determine the biochemical changes in the colon and plasma. The effects were determined by way of measurement of body weight, blood gas analysation and biopsy. […]
The average of the three criteria is calculated for the animals of each group, wherein “0” means for criteria 1 small or no bleeding area, for criteria 2 no bleeding area and for criteria 3 no ulcer. […]

[3] = system: nitrite/nitrate (NOx); test: Tissue nitrite/nitrate level, mice with gastric injury without inflammation; conditions: gastric and duodenal tissue, 1.11 mmol/kg, vs control group A and group C, FIGS. 7a/7b
Procedure: […] This assay depends on the reduction of nitrate to nitrite, which is then converted into a colored azo dye compound that is detected spectrophotometrically at 540 nm.
as §2

[4] = system: myeloperoxidase (MPO); test: Tissue myeloperoxidase activity, mice with TNBS-induced colitis; conditions: gastric and colon tissue, 1.11 mmol/kg, one day after treatment, vs untreated colitis and ASS groups, FIGS. 13a/13b
Procedure: (§3) Colonic inflammation was induced by intracolonic administration of TNBS (2,4,6-trinitrobenzenesulfonic acid) (40 mg/kg in 0.25 ml of 25% aqueous ethanol) through an 8-cm-long soft plastic catheter under transient diethylether anesthesia. In the sham-operated groups, only the vehicle for TNBS was administered. The animals were deprived of food, but not water, for 12 h before the enemas.
Colon biopsies kept on ice were homogenized in phosphate buffer (pH 7.4) containing 50 mM Tris-HCl (Reanal, Budapest, Hungary), 0.1 mM EDTA, 0.5 mM dithiothreitol, 1 mM phenylmethylsulfonyl fluoride, 10 μg/ml soybean trypsin inhibitor, and 10 μg/ml leupeptin (Sigma Aldrich GmbH, Munich, Germany). […] The activity of myeloperoxidase (MPO) was measured on the pellet of the homogenate.
The activity of MPO as a marker of tissue leukocyte infiltration was measured on the pellet of the homogenate. […] The reaction led to the hydrogen peroxide-dependent oxidation of tetramethylbenzidine, which could be detected spectrophotometrically at 450 nm (UV-1601 spetrophotometer; Shimadzu, Kyoto, Japan). Myeloperoxidase activities were measured at 37° C.; the reaction was stopped after 5 minutes by the addition of 0.2 ml of H2SO4 (2 M), and the resulting data were referred to the protein content. […]

[5] = system: nitrite/nitrate (NOx); test: Tissue nitrite/nitrate level, mice with TNBS-induced colitis; conditions: gastric and colon tissue, 1.11 mmol/kg, FIGS. 15a/15b
Procedure: as §3, §1
The above-described clinical studies were repeated with animals having colitis which was induced as described above. […] Two days after the enema the effects of the treatment were determined by measurement of body weight, blood gas analysis and biopsy. […] Surgery was performed to allow registration of the hemodynamic parameters at 1 h intervals for 6 h (cardiac output [CO] data were measured only at the end of the experiments). […] In addition, fluorescence confocal endomicroscopy was performed to examine the microvasculature and morphologic changes of the mucosa of the distal colon, and full-thickness tissue samples and venous blood samples were taken to determine the biochemical changes in the colon and plasma.

| Structure (SMILES) | nitrite/nitrate level in the blood [1] | macroscopic analysis of the mucosa (score) [2] | nitrite/nitrate level [3] | myeloperoxidase enzyme activity [4] | nitrite/nitrate level [5] |
| --- | --- | --- | --- | --- | --- |
| CC(=O)Oc1ccccc1C(=O)O [ASS, acetylsalicylic acid, reference compound] | increased nitrite/nitrate level | significant damage of the mucosa | significant difference in the nitrite/nitrate level | – | – |
| CC(=O)Oc1ccccc1C(=O)NC(CO)(CO)CO [compound according to the invention] | – | – | – | decrease of activity | nitrite/nitrate levels comparable to those of healthy animals |

— patent US20160326098A1, “Pharmaceutically Active Compound for Use as Anti-inflammatory Agent” (Pax Forschung GmbH, priority 2013, published 2016)
